Laboratory results: patent US7390816B2, “Methods for treating urinary incontinence in patients suffering from memory disorders” (Bridge Pharma, Inc., priority 2005, dated 2008)
Where two headings read alike, the source gives them in different places.

Experiments:
memory = test: Side effects concerning memory functions, T-shaped maze in conscious rats; format: in vivo; conditions: for Effect on memory: naive rats
Procedure: . Side effects concerning memory functions. Methods:
Conscious rats are used. The animals are placed at the base of a T-shaped maze with a reward placed in one of the arms of the maze. After the animals have learned where the reward is located, said reward is removed and it is investigated how long time it takes in the maze before the rats no longer selected the arm of the maze where the reward had been located. Experiments were also performed in rats that had been pretreated with phenylephrine to increase the permeability of the blood-brain barrier. Control groups of animals were treated with placebo (vehicle only) or with oxybutynin.

[1] = tested on: carbachol-induced contractions of urinary bladder smooth muscle strips; test: Antimuscarinic activity on bladder smooth muscle strips (carbachol-induced contractions); format: cell-based, guinea pigs; conditions: Cavia porcellus, read-out: KB for inhibition of carbachol-induced contractions
Source text: Conclusions: Trospium had slightly higher affinity for human muscarinic receptors than the reference compounds. The therapeutic activity of anti-muscarinic drugs in overactive human bladders are usually considered to be related to affinity for M-2/M-3 receptors, while the side effect xerostomia (dry mouth) is due mainly, but not exclusively, to inhibition of M-1 receptors in salivary glands. • 2. Functional Characterization of Antimuscarinic and Antispasmodic Activities on Bladder Smooth Muscle Strips. Methods: Experiments have now been performed using methods described by Kachur et al, J Pharmacol Exp Ther. 1988, 247: 867-872 and Noronha-Blob et al. J Pharmacol Exp Ther 256: 562-567. Strips of tissue (approximately 10 mm long and 1.5 mm wide) were removed from the urinary bladder of male guinea pigs. The tissues were suspended in an oxygenated buffer of the following composition, in mM: NaCl 133; KCl 4.7; CaCl2 2.5; MgSO4 0.6; NaH2PO4.1.3; NaHCO3 16.3; and glucose 7.7. The smooth muscle strips were maintained at or about 37.5° C. in tissue chambers and allowed to equilibrate with the bathing solution for one hour before proceeding with the experiment. […]

[2] = male guinea pig urinary bladder strips

| Structure (SMILES) | Effect on memory (memory; T-shaped maze) | Kb [1, 2] | Kb [1] | Effect on memory after phenylephrine pretreatment (memory; rats pretreated with phenylephrine to increase blood-brain barrier permeability) | Aggravation of existing memory impairment (memory; rats with memory disorder induced by oxybutynin, T-shaped maze) |
| --- | --- | --- | --- | --- | --- |
| CCN(CC)CC#CCOC(=O)C(O)(c1ccccc1)C1CCCCC1 (centres unmarked) [Oxybutynin] | memory is impaired | 1.5 to 5.5 nM | – | – | – |
| Cc1ccc(O)c([C@H](CCN(C(C)C)C(C)C)c2ccccc2)c1 [Tolterodine] | – | – | 1.5 to 5.5 nM | – | – |
| O=C(OC1CC2CCC(C1)[N+]21CCCC1)C(O)(c1ccccc1)c1ccccc1 (centres unmarked) [Trospium, azoniaspiro (3[…]-benziloyl-oxynortro-pane-8,1′-pyrrolidine) chloride] | does not influence the memory | – | 1.5 to 5.5 nM | did not uncover any impairment of memory | no further aggravation of memory impairment |
| CC(CC(c1ccccc1)c1ccccc1)NC(C)(C)C (centres unmarked) [terodiline] | – | 1.5 to 5.5 nM | – | – | – |
